# Read-outs that look alike come from different tables or passages of the source.
# What was measured:
# human α1A‐adrenoceptor [1] = biological target: T1, human α1A‐adrenoceptor (Homo sapiens, UniProt P35348); test: ERK1/2‐phosphorylation (Surefire Alphascreen), CHO‐α1A cells; format: cell-based
# T1 construct: expressed in transfected cells; host or cells: CHO-K1
# T1 sequence (P35348 1-466): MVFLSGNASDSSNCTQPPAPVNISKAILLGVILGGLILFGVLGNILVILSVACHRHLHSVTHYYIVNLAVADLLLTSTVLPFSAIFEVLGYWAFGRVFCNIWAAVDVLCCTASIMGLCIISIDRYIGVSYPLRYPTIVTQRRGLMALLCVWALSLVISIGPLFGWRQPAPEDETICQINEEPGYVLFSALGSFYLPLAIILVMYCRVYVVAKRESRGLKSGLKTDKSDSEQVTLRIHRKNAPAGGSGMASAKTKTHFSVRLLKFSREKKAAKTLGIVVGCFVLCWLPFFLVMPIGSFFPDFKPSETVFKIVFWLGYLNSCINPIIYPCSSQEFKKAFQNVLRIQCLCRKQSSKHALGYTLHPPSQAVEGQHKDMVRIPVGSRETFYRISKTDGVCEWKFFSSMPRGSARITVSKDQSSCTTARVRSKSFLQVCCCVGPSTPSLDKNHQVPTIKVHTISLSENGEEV
# [2] = tested on: parental CHO cell line without any transfected receptors; test: Forskolin‐stimulated cAMP accumulation, parent CHO cells without transfected receptors; format: cell-based, Chinese hamster
# [3] = tested on: parental CHO cell line without any transfected receptors; test: Intracellular calcium mobilization, parent CHO cells without transfected receptors; format: cell-based, Chinese hamster; conditions: Cricetulus griseus; CHO cells without transfected receptors; response at maximum concentration used (c2), as % of ionomycin (10μM) response; mean ± s.e.m.; read-out: Intracellular calcium release % ionomycin
# human α1B‐adrenoceptor [4] = biological target: T2, human α1B‐adrenoceptor (Homo sapiens, UniProt P35368); test: Intracellular free calcium mobilization, CHO‐α1B cells; format: cell-based
# T2 construct: expressed in transfected cells; host or cells: CHO-K1
# T2 sequence (P35368 1-520): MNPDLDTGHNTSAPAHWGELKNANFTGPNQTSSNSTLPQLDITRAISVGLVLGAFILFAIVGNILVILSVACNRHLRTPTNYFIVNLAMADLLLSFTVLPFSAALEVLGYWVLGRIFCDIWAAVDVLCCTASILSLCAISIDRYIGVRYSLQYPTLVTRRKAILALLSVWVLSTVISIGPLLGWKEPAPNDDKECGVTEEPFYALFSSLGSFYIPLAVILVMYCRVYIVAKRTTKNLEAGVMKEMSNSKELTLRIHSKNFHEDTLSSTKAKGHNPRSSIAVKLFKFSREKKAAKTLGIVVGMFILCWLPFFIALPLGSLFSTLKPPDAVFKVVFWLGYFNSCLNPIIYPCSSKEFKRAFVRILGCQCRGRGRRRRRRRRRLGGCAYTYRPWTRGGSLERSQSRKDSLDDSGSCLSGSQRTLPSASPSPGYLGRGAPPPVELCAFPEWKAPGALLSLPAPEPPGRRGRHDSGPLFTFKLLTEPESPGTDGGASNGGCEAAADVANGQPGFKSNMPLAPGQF
# [5] = biological target: T3, human α1D‐adrenoceptor (full length) (Homo sapiens, UniProt P25100); test: ERK1/2‐phosphorylation (Surefire Alphascreen), CHO‐α1D cells; format: cell-based
# T3 construct: human α1D‐adrenoceptor (full length) were used; expressed in transfected cells; host or cells: CHO-K1
# T3 sequence (P25100 1-572): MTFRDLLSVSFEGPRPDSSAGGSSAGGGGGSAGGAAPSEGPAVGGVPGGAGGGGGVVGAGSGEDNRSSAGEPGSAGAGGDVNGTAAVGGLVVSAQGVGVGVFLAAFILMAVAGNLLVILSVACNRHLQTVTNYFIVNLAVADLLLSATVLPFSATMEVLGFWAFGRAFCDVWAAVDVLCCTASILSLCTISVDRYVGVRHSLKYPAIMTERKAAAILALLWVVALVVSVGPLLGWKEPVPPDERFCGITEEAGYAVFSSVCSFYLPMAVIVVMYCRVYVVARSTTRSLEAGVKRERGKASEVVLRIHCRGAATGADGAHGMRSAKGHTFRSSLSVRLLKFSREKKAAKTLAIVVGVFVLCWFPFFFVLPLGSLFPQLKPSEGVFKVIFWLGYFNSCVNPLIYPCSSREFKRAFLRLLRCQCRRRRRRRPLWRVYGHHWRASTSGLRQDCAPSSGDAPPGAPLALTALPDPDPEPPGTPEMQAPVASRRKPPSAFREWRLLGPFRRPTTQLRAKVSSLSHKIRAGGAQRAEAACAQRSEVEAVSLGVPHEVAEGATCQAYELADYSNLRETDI
# human α1B‐adrenoceptor [6] = biological target: T2, human α1B‐adrenoceptor; test: ^3H‐prazosin whole‐cell radioligand binding, CHO‐α1B cells
# human α1B‐adrenoceptor [7] = biological target: T2, human α1B‐adrenoceptor; test: ^3H‐cAMP accumulation, CHO‐α1B cells; format: cell-based; conditions: CHO‐α1B cells; for cAMP accumulation % forskolin: % forskolin maximum response; for EC50: read-out: cAMP accumulation Log EC50 (converted)
# human α1B‐adrenoceptor [8] = biological target: T2, human α1B‐adrenoceptor; test: ERK1/2‐phosphorylation (Surefire Alphascreen), CHO‐α1B cells; format: cell-based
# human α1B‐adrenoceptor [9] = biological target: T2, human α1B‐adrenoceptor; test: ^3H‐cAMP accumulation in the presence of 10 μM forskolin, CHO‐α1B cells; format: cell-based; conditions: CHO‐α1B cells; for EC50: in presence of forskolin, read-out: cAMP accumulation (in presence of forskolin) Log EC50 (converted)
# [10] = biological target: T3, human α1D‐adrenoceptor (full length); test: ^3H‐prazosin whole‐cell radioligand binding, CHO‐α1D cells
# [11] = biological target: T3, human α1D‐adrenoceptor (full length); test: Intracellular free calcium mobilization, CHO‐α1D cells; format: cell-based
# human α1A‐adrenoceptor [12] = biological target: T1, human α1A‐adrenoceptor; test: ^3H‐cAMP accumulation, CHO‐α1A cells; format: cell-based; conditions: CHO‐α1A cells; for cAMP accumulation % forskolin: % of 10 µM forskolin response
# [13] = tested on: parental CHO cell line without any transfected receptors; test: ERK1/2‐phosphorylation, parent CHO cells without transfected receptors; format: cell-based, Chinese hamster
# human α1A‐adrenoceptor [14] = biological target: T1, human α1A‐adrenoceptor; test: Intracellular free calcium mobilization, CHO‐α1A cells; format: cell-based
# [15] = biological target: T3, human α1D‐adrenoceptor (full length); test: ^3H‐cAMP accumulation in the presence of 10 μM forskolin, CHO‐α1D cells; format: cell-based; conditions: for Effect on cAMP accumulation in the presence of forskolin, CHO‐α1D cells: not α1‐mediated
# human α1A‐adrenoceptor [16] = biological target: T1, human α1A‐adrenoceptor; test: ^3H‐cAMP accumulation in the presence of 10 μM forskolin, CHO‐α1A cells; format: cell-based; conditions: CHO‐α1A cells
# human α1A‐adrenoceptor [17] = biological target: T1, human α1A‐adrenoceptor; test: ^3H‐prazosin whole‐cell radioligand binding, CHO‐α1A cells
# [18] = read-out: ERK1/2‐phosphorylation Log EC50 (converted)
# [19] = read-out: Intracellular calcium release Log EC50 (converted)
# [20] = fold increase of the forskolin response
smiles,measurement,setting,value
Clc1cccc(Cl)c1N=C1NCCN1 [Clonidine],ERK1/2‐phosphorylation % PDBu,human α1A‐adrenoceptor [1],85.7 ± 4.7%
same,cAMP accumulation (in presence of forskolin) Log EC50,"[2]; CHO cells without transfected receptors, in presence of forskolin",No response
same,Emax,[3],1.6 ± 1%
same,Intracellular calcium release % ionomycin,human α1B‐adrenoceptor [4],45.4 ± 2.1%
same,EC50,"human α1B‐adrenoceptor [4]; Intracellular calcium release Log EC50, CHO‐α1B cells, given as log EC50 (negative numbers)",17 nM
same,ERK1/2‐phosphorylation % PDBu at 100 µM,[5],6.1 ± 1.3%
same,Kd,"human α1B‐adrenoceptor [6]; Log KD α1B, ^3H‐prazosin whole cell binding, CHO‐α1B cells, given as log KD (negative), mean ± SEM",7410 nM
same,Kd,"human α1B‐adrenoceptor [6]; Log KD, ^3H‐prazosin binding, CHO‐α1B cells, whole‐cell binding (from Table 1), given as log KD (negative numbers)",7410 nM
same,cAMP accumulation % forskolin,human α1B‐adrenoceptor [7],7.5 ± 0.8%
same,EC50,human α1B‐adrenoceptor [7],251 nM
same,ERK1/2‐phosphorylation % PDBu,human α1B‐adrenoceptor [8],60.6 ± 7.6%
same,EC50,"human α1B‐adrenoceptor [8]; ERK1/2‐phosphorylation Log EC50, CHO‐α1B cells, for bi‐phasic responses the initial stimulatory part",89.1 nM
same,EC50,human α1B‐adrenoceptor [9],44.7 nM
same,Kd,"[10]; 3H‐prazosin binding Log KD, CHO‐α1D cells, whole‐cell binding (from Table 1), log values given negative",2570 nM
same,Kd,"[10]; Log KD α1D, ^3H‐prazosin whole cell binding, CHO‐α1D cells, given as log KD (negative), mean ± SEM, 'early plateau' = specific binding not fully inhibited",2570 nM
same,Intracellular calcium release % Ionomycin at 100 µM,[11],8.0 ± 0.5%
same,cAMP accumulation % forskolin,human α1A‐adrenoceptor [12],33.8 ± 3.2%
same,ERK1/2-phosphorylation % PDBu,"[13]; CHO cells without transfected receptors, maximal response as % of PDBu (10μM) response, mean ± s.e.m.",No response
same,Intracellular calcium release % ionomycin,human α1A‐adrenoceptor [14],51.6 ± 1.2%
Cc1cc(C(C)(C)C)c(O)c(C)c1CC1=NCCN1 [Oxymethazoline],ERK1/2‐phosphorylation % PDBu,"human α1A‐adrenoceptor [1]; CHO‐α1A cells, % of 10 µM PDBu, ^a bi‐phasic: initial stimulatory part",92.8 ± 2.7%
same,% inhibition of forskolin-stimulated cAMP,"[2]; CHO cells without transfected receptors, footnote *: % inhibition",18.1 ± 2.2%
same,IC50,"[2]; Cricetulus griseus, CHO cells without transfected receptors, footnote *: log IC50, read-out: log IC50, decrease in forskolin-stimulated cAMP accumulation (converted)",19.5 nM
same,"Effect on cAMP accumulation in the presence of forskolin, parent cells",[2]; untransfected cells,decrease in cAMP accumulation
same,Emax,[3],3.1 ± 0.9%
same,ERK1/2‐phosphorylation % PDBu,"[5]; CHO‐α1D cells, maximal response as % of PDBu",48.6 ± 5.4%
same,% inhibition of forskolin‐stimulated cAMP,"[15]; CHO‐α1D cells, decrease in forskolin‐stimulated cAMP accumulation (footnote b)",*28.7 ± 2.9%
same,"Effect on cAMP accumulation in the presence of forskolin, CHO‐α1D cells",[15]; listed as Oxymetazoline,decrease in cAMP accumulation
same,"Effect on cAMP accumulation in the presence of forskolin, CHO‐α1D cells",[15]; listed as oxymetazoline,inhibitory cAMP response
same,Intracellular calcium release % ionomycin,"[11]; CHO‐α1D cells, maximal response as % of 10 µM ionomycin",7.6 ± 1.0%
same,cAMP accumulation % forskolin,human α1A‐adrenoceptor [12],43.9 ± 5.2%
same,Emax,"[13]; Cricetulus griseus, CHO cells without transfected receptors, maximal response as % of PDBu (10μM) response, mean ± s.e.m., read-out: ERK1/2-phosphorylation % PDBu",46.7 ± 6%
same,EC50,"[13]; Cricetulus griseus, CHO cells without transfected receptors, mean ± s.e.m., read-out: ERK1/2-phosphorylation Log EC50 (converted)",11 nM
same,ERK1/2‐phosphorylation response in parent CHO cells,[13]; untransfected cells,stimulated ERK1/2‐phosphorylation responses
same,Intracellular calcium release % ionomycin,"human α1A‐adrenoceptor [14]; CHO‐α1A cells, maximal response as % of 10 µM ionomycin",54.5 ± 2.5%
Cc1cccc(C(C)c2cnc[nH]2)c1C (stereo not drawn) [Medetomidine],ERK1/2‐phosphorylation % PDBu,human α1A‐adrenoceptor [1],85.8 ± 3.3%
same,EC50,human α1A‐adrenoceptor [1]; [18],31.6 nM
same,cAMP accumulation (in presence of forskolin) % forskolin-stim cAMP at 100μM,"[2]; CHO cells without transfected receptors, response at 100μM only, EC50 not obtainable, % of forskolin-stimulated cAMP",88.4 ± 3.2%
same,Emax,[3],11.7 ± 2.4%
same,Intracellular calcium release % ionomycin,human α1B‐adrenoceptor [4],43.0 ± 3.4%
same,Log efficacy ratio KD /EC50,human α1B‐adrenoceptor [4],2.09
same,EC50,human α1B‐adrenoceptor [4]; [19],117 nM
same,EC50,"human α1A‐adrenoceptor [16]; 10 μM forskolin, read-out: cAMP accumulation (in presence of forskolin) Log EC50 (converted)",126 nM
same,cAMP accumulation (in presence of forskolin) Fold increase,human α1A‐adrenoceptor [16]; [20],2.12 ± 0.09 fold
same,Affinity selectivity ratio α1A vs α1B,human α1A‐adrenoceptor [17],6.2 fold
same,Kd,"human α1A‐adrenoceptor [17]; Log KD α1A, ^3H‐prazosin whole cell binding",2340 nM
same,ERK1/2‐phosphorylation % PDBu,[5],22.6 ± 5.1%
same,EC50,[5]; [18],7240 nM
same,Kd,"human α1B‐adrenoceptor [6]; Log KD α1B, ^3H‐prazosin whole cell binding",14500 nM
same,Kd,"human α1B‐adrenoceptor [6]; Log KD, ^3H‐prazosin binding",14500 nM
same,cAMP accumulation % forskolin,human α1B‐adrenoceptor [7],4.6 ± 0.9%
same,EC50,human α1B‐adrenoceptor [7],115 nM
same,ERK1/2‐phosphorylation % PDBu,human α1B‐adrenoceptor [8],55.2 ± 5.3%
same,EC50,human α1B‐adrenoceptor [8]; [18],138 nM
same,cAMP accumulation (in presence of forskolin) Fold increase,human α1B‐adrenoceptor [9]; [20],1.52 ± 0.04 fold
same,EC50,human α1B‐adrenoceptor [9],93.3 nM
same,Affinity selectivity ratio α1A vs α1D,[10],1.1 fold
same,Affinity selectivity ratio α1B vs α1D,[10],6.8 fold
same,Kd,[10]; 3H‐prazosin binding Log KD,2140 nM
same,Kd,"[10]; Log KD α1D, ^3H‐prazosin whole cell binding",2140 nM
same,Intracellular calcium release % Ionomycin at 100 µM,[11],11.5 ± 2.3%
same,EC50,"human α1A‐adrenoceptor [12]; 5 h, read-out: cAMP accumulation Log EC50 (converted)",646 nM
same,cAMP accumulation % forskolin,human α1A‐adrenoceptor [12],46.3 ± 5.2%
same,Emax at 100 µM,"[13]; Cricetulus griseus, CHO, read-out: ERK1/2-phosphorylation % PDBu at 100μM",7.9 ± 3.8%
same,Intracellular calcium release % ionomycin,human α1A‐adrenoceptor [14],57.2 ± 1.8%
same,Log efficacy ratio KD /EC50,human α1A‐adrenoceptor [14],2.06
same,EC50,human α1A‐adrenoceptor [14]; [19],20.4 nM

# Source: article PMC8343220, “The selectivity of α‐adrenoceptor agonists for the human α1A, α1B, and α1D‐adrenoceptors” (Pharmacology Research & Perspectives, 2021)
